These results are taken from patent US9156838B2, “Fused heterocyclic compound” (Sumitomo Chemical Company, Limited, priority 2012, dated 2015).

This test concerns Blattella germanica. Kind of test: Test Example 9: treated filter paper with sucrose bait, Blattella germanica male imagoes. The settings on record: 500 ppm, 0.7 ml on filter paper, after 6 days. Type of test: in vivo. Here is the method: The formulations of Compounds 3 and 10 as obtained in Formulation Example 5 were diluted with water, so as to have a concentration of the active ingredient of 500 ppm, to prepare a test drug solution.
A filter paper having a diameter of 5.5 cm was spread on the bottom of a polyethylene cup having the same diameter and 0.7 ml of the test drug solution was added dropwise onto the filter paper, and 30 mg of sucrose was uniformly placed as bait. Into the polyethylene cup, 2 male imagoes of Blattella germanica were released, and the cup was sealed with a lid. After 6 days, the life and death of Blattella germanica was examined, and the death rate was calculated.

Compound `CCS(=O)(=O)c1cc(SC(F)(F)F)ccc1-c1nc2cc(C(F)(F)C(F)(F)F)cnc2n1C` [Compound 10, 2-(2-ethylsulfonyl-4-trifluoromethylsulfanylphenyl)3-methyl-6-pentafluoroethyl-3H-imidazo[4,5-b]pyridine] registered a death rate of 100%. Then `CCS(=O)(=O)c1cc([S+]([O-])C(F)(F)F)ccc1-c1nc2cc(C(F)(F)F)cnc2n1C` (centres unmarked) [Compound 3], with 100%.
